Tests used:
[1] = blind bench-top tasting panel, fortified mayonnaise; assay type: in vivo
Procedure: (§1) The following compositions are made and tested blind. Using a blind bench-top tasting panel (consisting of 4 to 8 panelists), panelists were asked to record the sensory attribute differences between the control and example samples, specifically focusing on off-notes (reduction or differences).
Fortified Mayonnaise (Smart Balance Omega Plus Light Mayonnaise Dressing—Omega-3 (500 Mg Per 15 g Serving) and Plant Sterols (100 Mg Per 15 g Serving)

[2] = blind bench-top tasting panel, cocoa; assay type: in vivo
From the text: as §1
Cocoa (Dilute 10% in Water to Consume) (Kroger Cocoa Unsweetened)

[3] = sweetness enhancement detection level; conditions: in vivo
From the text: (§2) There is also provided an orally-receivable or -ingestible composition comprising an off-note-masking proportion of 1-(2-hydroxyphenyl)-3-(pyridin-4-yl)propane-1-one or a salt thereof 1-(2-hydroxyphenyl)-3-(pyridin-4-yl)propane-1-one (hereinafter referred to as “Compound 1”) is disclosed in United States published application No. 2010/272656. In this publication, the compound is described as an effective sweetness enhancer. It is a surprising feature of this disclosure that the same compound can deliver an off-note- or off-taste-masking effect at a concentration far below the concentration at which it is perceived as sweet. The minimum level at which the sweetness enhancement effect of Compound 1 can be detected is 35 ppm, but the off-note- or off-taste-masking effect of the masker can be as low as 2.5 ppm. A practical maximum for off-note masking is 10 ppm.

[4] = off-note / off-taste masking, lowest effective level; conditions: in vivo
From the text: as §2

[5] = blind bench-top tasting panel, proteinaceous supplement; assay type: in vivo
From the text: as §1
Proteinaceous Supplement (GNC Pro Performance 100% Whey Protein)

[6] = blind bench-top tasting panel, soy yogurt; assay type: in vivo
From the text: as §1
Soy Yogurt (O'Soy Organic Soy Yogurt Strawberry Flavor—5 g Protein Per 4 oz Serving)

[7] = blind bench-top tasting panel, OTC syrup; assay type: in vivo
Procedure: as §1, with “differences). Over-the-Counter (OTC) Syrup (Kroger Daytime Cold/Flu Relief (Acetaminophen 325 mg per 15 mL; Dextromethorphan HBr 10 mg per 15 mL; Phenylephrine HCl 5 mg per 15 mL))” for “differences).”

[8] = 0.002% by weight in cocoa (unsweetened)
[9] = 0.0015% by weight in whey protein supplement

| SMILES | panelist preference over the control ([1]; 0.00025% by weight in fortified mayonnaise) | panelist preference over the control [2, 8] | minimum level at which the sweetness enhancement effect can be detected [3] [ppm] | off-note- or off-taste-masking effect can be as low as [4] [ppm] | panelist preference over the control ([5]; 0.003% by weight in whey protein supplement) | panelist preference over the control ([6]; 0.002% by weight in soy yogurt) | panelist preference over the control ([7]; 0.003% by weight in OTC syrup) | panelist preference over the control ([1]; 0.0005% by weight in fortified mayonnaise) | panelist preference over the control [5, 9] | panelist preference over the control ([1]; 0.001% by weight in fortified mayonnaise) | panelist preference over the control ([2]; 0.001% by weight in cocoa (unsweetened)) | panelist preference over the control ([6]; 0.001% by weight in soy yogurt) | panelist preference over the control ([7]; 0.002% by weight in OTC syrup) |
| --- | --- | --- | --- | --- | --- | --- | --- | --- | --- | --- | --- | --- | --- |
| O=C(CCc1ccncc1)c1ccccc1O [Compound 1, 1-(2-hydroxyphenyl)-3-(pyridin-4-yl)propane-1-one] | preferred | preferred | 35 | 2.5 | preferred | preferred | preferred |  |  |  |  |  |  |
| CC1CCC(CCCC(=O)O)C1(C)C (centres unmarked) [Compound 2, 4-[2,2,3-trimethyl-cyclopentyl]-butanoic acid] |  | preferred |  |  |  | preferred | preferred | preferred | preferred |  |  |  |  |
| CCc1c(C)c2ccc(OC(C)C(=O)O)c(C)c2oc1=O (centres unmarked) [Compound 3, 2-[(3-ethyl-4,8-dimethyl-2-oxo-2H-chromen-7-yl)oxy]propanoic acid] |  |  |  |  |  |  |  |  | preferred | preferred | preferred | preferred | preferred |

— patent US20140005153A1, “Off-Note Masking” (GIVAUDAN S. A., priority 2011, published 2014)
